Assay results as given in patent publication US7524844B2, “Dipeptidyl peptidase IV inhibitors, process for their preparation and compositions containing them” (Glenmark Pharmaceuticals S.A., priority 2004, dated 2009).

biological target: T1, human recombinant Dipeptidyl peptidase IV enzyme (DPP-IV) (Homo sapiens, UniProt P27487); assay: in-vitro DPP-IV assay (cleavage of AMC from Gly-Pro-AMC); assay type: biochemical; conditions: at 300 nM; printed in the IC50 (nM) column; read-out: DPP-IV inhibition using human recombinant DPP-IV enzyme, percent inhibition
T1 construct: purchased R&D Systems Inc. of Minneapolis, Minn
Method: DPP-IV activity was determined by the cleavage rate of 7-amino-4-methyl coumarin (AMC) from the synthetic substrate Glycyl-Prolyl-AMC. In brief, the assay was conducted by adding 10 ng of human recombinant Dipeptidyl peptidase IV enzyme (DPP-IV, available commercially from R&D Systems Inc. of Minneapolis, Minn.) in 50 μl of the assay buffer (25 mM Tris, pH 7.4, 140 mM NaCl, 10 mM KCl, 1% BSA) to 96 well black flat bottom microtiter plates. The reaction was initiated by adding 50 μl of 100 μM substrate Gly-Pro-AMC. The incubation was carried out in the kinetic mode at 30° C. for 30 minutes. Fluorescence was measured using Fluorostar with an excitation filter of 380 nm and emission filter of 460 nm. Test compounds and solvent controls were added as 1 μl additions. A standard curve of free amino methyl coumarin (AMC) was generated using 0-100 μM AMC in the assay buffer. The curve generated, which was linear was used for the interpolation of catalytic activity.
Test compounds dissolved in DMSO at 5-6 concentrations were tested in duplicate along with the solvent control and blank samples. Percent inhibition was calculated at each concentration with respect to the solvent control sample (no test compound added). […]

T1 sequence (P27487 whole entry): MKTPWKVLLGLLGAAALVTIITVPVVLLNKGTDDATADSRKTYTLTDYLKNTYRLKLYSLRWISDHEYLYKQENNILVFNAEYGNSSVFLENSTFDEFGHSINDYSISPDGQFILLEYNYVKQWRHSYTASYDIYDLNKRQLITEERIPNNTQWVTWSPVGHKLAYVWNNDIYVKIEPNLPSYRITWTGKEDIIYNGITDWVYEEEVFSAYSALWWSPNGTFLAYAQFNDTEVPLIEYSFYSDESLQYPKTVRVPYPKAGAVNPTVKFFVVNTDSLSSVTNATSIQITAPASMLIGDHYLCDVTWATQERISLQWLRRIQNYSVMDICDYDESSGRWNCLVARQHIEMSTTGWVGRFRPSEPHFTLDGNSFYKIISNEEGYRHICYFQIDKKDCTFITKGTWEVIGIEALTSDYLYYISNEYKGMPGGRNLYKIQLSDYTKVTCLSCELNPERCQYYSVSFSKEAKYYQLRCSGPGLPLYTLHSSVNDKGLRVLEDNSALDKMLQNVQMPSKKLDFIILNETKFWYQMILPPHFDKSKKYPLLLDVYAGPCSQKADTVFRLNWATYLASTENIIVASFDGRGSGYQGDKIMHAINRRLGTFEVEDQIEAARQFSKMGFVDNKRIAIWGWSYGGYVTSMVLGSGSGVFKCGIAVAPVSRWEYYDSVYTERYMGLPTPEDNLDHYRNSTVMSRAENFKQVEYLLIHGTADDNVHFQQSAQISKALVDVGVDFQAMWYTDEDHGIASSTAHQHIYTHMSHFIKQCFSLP

inhibition at 0.3 µM [%]	SMILES
2	N#C[C@@H]1CCCN1C(=O)CNC1CCC(C(=O)Nc2cc(F)c(F)cc2F)C1 (mixture of isomers) [Example 74, 1-((1SR,3RS)-3-{2-[(2S)-2-Cyanopyrrolidine-1-yl]-2-oxoethylamino}cyclopentyl-carboxamido)-2,4,5-trifluorobenzene]
0	O=C(CN[C@H]1CCC(Cn2cncn2)C1)N1CC[C@H](F)C1 (stereo in doubt) [Example-55, 1-[(3S)-3-Fluoropyrrolidin-1-yl]-2-[(1S,3S)-3-(1H-1,2,4-Triazol-1-ylmethyl)cyclo-pentylamino]-1-ethanone]

same assay, conditions: human recombinant DPP-IV, Gly-Pro-AMC substrate, 30° C., 30 minutes; read-out: DPP-IV inhibition using human recombinant DPP-IV enzyme, IC50

IC50 [nM]	SMILES
286	N#CC1CCC(NCC(=O)N2CCC[C@H]2C#N)C1 (mixture of isomers) [Example 2, (2S)-1-{2-[(3SR,1RS)-3-Cyanocyclopentylamino]acetyl}-2-pyrrolidinecarbonitrile]
163	N#C[C@@H]1CCCN1C(=O)CNC1CCC(C(N)=O)C1 (mixture of isomers) [Example-1, (1SR,3RS)-3-{2-[(2S)-2-Cyanopyrrolidin-1-yl]-2-oxoethylamino}cyclopentane-1-carboxamide]
64.4	N#C[C@@H]1CCCN1C(=O)CNC1CCC(CN2CCC[C@H]2C(N)=O)C1 (mixture of isomers) [Example-10, (2S)-1-((1SR,3RS)-3-{2-[(2S)-2-Cyanopyrrolidin-1-yl]-2-oxoethylamino}cyclopentyl-methyl)pyrrolidine-2-carboxamide]
123	CN1CCN(CC2CCC(NCC(=O)N3CCC[C@H]3C#N)C2)CC1 (mixture of isomers) [Example-20, (2S)-1-{2-[(3SR,1RS)-3-(4-Methylpiperazinomethyl)cyclopentylamino]acetyl}-pyrrolidine-2-carbonitrile]
33	N#CC1CCN(C[C@H]2CC[C@@H](NCC(=O)N3CCC[C@H]3C#N)C2)CC1 (mixture of isomers) [Example-21, (2S)-1-{2-[(3SR,1RS)-3-(4-Cyanopiperidinylmethyl)cyclopentylamino]acetyl}-pyrrolidine-2-carbonitrile]
3.44	N#Cc1cccn1CC1CCC(NCC(=O)N2C[C@@H](F)C[C@H]2C#N)C1 (mixture of isomers) [Example-27, (2S,4S)-1-{2-[(3SR,1RS)-3-(2-Cyano-1H-pyrrol-1-ylmethyl)cyclopentylamino)-acetyl}-4-fluoropyrrolidine-2-carbonitrile]
10.1	CCCCc1nc(Cl)c(CO)n1CC1CCC(NCC(=O)N2CCC[C@H]2C#N)C1 (mixture of isomers) [Example-31, (2S)-1-{2-[(3SR,1RS)-3-(2-Butyl-4-chloro-5-hydroxymethyl-1H-1-imidazolylmethyl)-cyclopentylamino]acetyl}pyrrolidine-2-carbonitrile]
3.46	CCCCc1nc(Cl)c(C#N)n1CC1CCC(NCC(=O)N2CCC[C@H]2C#N)C1 (mixture of isomers) [Example-32, 2-n-Butyl-4-chloro-1-((1SR,3RS)-3-{2-[(2S)-2-cyanopyrrolidin-1-yl]-2-oxoethyl-amino}cyclopentylmethyl)-1H-5-imidazolecarbonitrile]
5.05	N#Cc1ncn(CC2CCC(NCC(=O)N3CCC[C@H]3C#N)C2)c1C#N (mixture of isomers) [Example-33, 1-((1SR,3RS)-3-{2-[(2S)-2-Cyanopyrrolidin-1-yl]-2-oxoethylamino}cyclopentyl-methyl)-1H-4,5-imidazoledicarbonitrile]
49.2	N#C[C@@H]1CCCN1C(=O)CNC1CCC(C(=O)Nc2cc(F)ccc2F)C1 (mixture of isomers) [Example 73, 1-((1SR,3RS)-3-{2-[(2S)-2-Cyanopyrrolidin-1-yl)-2-oxoethylamino}cyclopentyl-carboxamido)-2,5-difluorobenzene]
103	N#C[C@@H]1CCCN1C(=O)CNC1CCC(C(=O)N2CCC[C@H]2C#N)C1 (mixture of isomers) [Example-11]
288	N#C[C@@H]1CCCN1C(=O)CNC1CCC(CN2CCSC2)C1 (mixture of isomers) [Example-17]
6.88	N#C[C@@H]1CCCN1C(=O)CNC1CCC(Cn2cnc([N+](=O)[O-])c2)C1 (mixture of isomers) [Example-30, (2S)-1-{2-[(3SR,1RS)-3-(1H-4-Nitro-1-imidazolylmethyl)cyclopentylamino]acetyl}-pyrrolidine-2-carbonitrile]
21.8	N#CC[C@@H]1CC[C@H](NCC(=O)N2CCC[C@H]2C#N)C1 [Example-6, (2S)-1-{2-[(3R,1S)-3-Cyanomethylcyclopentylamino]acetyl}-2-pyrrolidinecarbo nitrile]
4.36	N#CC[C@@H]1CC[C@H](NCC(=O)N2C[C@@H](F)C[C@H]2C#N)C1 [Example-8, (2S,4S)-1-{2-1[(3R,1S)-3-Cyanomethylcyclopentylamino]acetyl}-4-fluoro-2-pyrro-idinecarbonitrile]
26.3	N#C[C@@H]1CCCN1C(=O)CN[C@@H]1CC[C@H](CNC(=O)Nc2ccc(F)cc2F)C1 [Example-14, N1-(2,4-Difluorophenyl)-N3-((1S,3R)-3-{2-[(2S)-2-cyanopyrrolidin-1-yl]-2-oxoethyl-amino}cyclopentylmethyl)urea]
29.4	N#C[C@@H]1CCCN1C(=O)CN[C@@H]1CC[C@H](CN2CCCS2(=O)=O)C1 [Example-18, (2S)-1-{2-[(3S,1R)-3-(1,1-Dioxo-2-isothiazolidinylmethyl)cyclopentylamino]acetyl}-pyrrolidine-2-carbonitrile]

More lines, now with the values behind:

SMILES	IC50 [nM]
N#CCC1CCC(NCC(=O)N2CCC[C@H]2C#N)C1 (mixture of isomers) [Example-3, (2S)-1-{2-[(3SR,1RS)-3-Cyanomethylcyclopentylamino]acetyl}-2-pyrrolidine carbonitrile]	26.8
N#C[C@@H]1CCCN1C(=O)CNC1CCC(C(=O)NOCc2ccccc2)C1 (mixture of isomers) [Example-12, N1-Benzyloxy-(1SR,3RS)-3-{2-[(2S)-2-cyanopyrrolidin-1-yl]-2-oxoethylamino}-cyclopentane-1-carboxamide]	145
N#C[C@@H]1CCCN1C(=O)CNC1CCC(Cn2cncn2)C1 (mixture of isomers) [Example-36, (2S)-1-{2-[(3SR,1RS)-3-(1H-1,2,4-Triazol-1-ylmethyl)cyclopentylamino]acetyl}-pyrrolidine-2-carbonitrile]	6
N#C[C@@H]1C[C@H](F)CN1C(=O)CNC1CCC(Cn2cncn2)C1 (mixture of isomers) [Example-41, (2S,4S)-1-{2-[(3SR,1RS)-3-(1H-1,2,4-Triazol-1-ylmethyl)cyclopentylamino]acetyl}-4-fluoropyrrolidine-2-carbonitrile]	4.44
N#C[C@@H]1CCCN1C(=O)CNC1CCC(C(=O)NC23CC4CC(CC(C4)C2)C3)C1 (mixture of isomers) [Example 72, 1-((1SR,3RS)-3-{2-[(2S)-2-Cyanopyrrolidin-1-yl]-2-oxoethylamino}cyclopentyl-carboxamido)adamantine]	209
N#C[C@@H]1CCCN1C(=O)CNC1CCC(C(=O)Nc2ccccc2-c2ccccc2)C1 (mixture of isomers) [Example 75, 1-((1SR,3RS)-3-{2-[(2S)-2-Cyanopyrrolidin-1-yl)-2-oxoethylamino}cyclopentyl-carboxamido)-2-phenylbenzene]	252
N#C[C@@H]1CCCN1C(=O)CNC1CCC(CN2CCN(Cc3ccccc3)CC2)C1 (mixture of isomers) [Example-22, (2S)-1-{2-1[(3SR,1RS)-3-(4-Benzylpiperazinomethyl)cyclopentylamino]acetyl}-pyrrolidin-2-carbonitrile]	25.4
N#CC[C@H]1CC[C@@H](NCC(=O)N2CCC[C@H]2C#N)C1 [Example-4, (2S)-1-{2-[(3S,1R)-3-Cyanomethylcyclopentylamino]acetyl}-2-pyrrolidinecarbo-nitrile]	22.2
N#CC[C@H]1CC[C@@H](NCC(=O)N2C[C@@H](F)C[C@H]2C#N)C1 [Example-7, (2S,4S)-1-{2-[(3S,1R)-3-Cyanomethylcyclopentylamino]acetyl}-4-fluoro-2-pyrrol-idinecarbonitrile]	4.29
N#CCC[C@H]1CC[C@@H](NCC(=O)N2C[C@@H](F)C[C@H]2C#N)C1 [Example-9, 3-((1R,3R)-3-{2-[(2S,4S)-2-Cyano-4-fluoropyrrolidin-1-yl]-2-oxoethylamino}-cyclopentyl)propanenitrile]	3.93
N#C[C@@H]1CCCN1C(=O)CN[C@@H]1CC[C@H](CNC(=O)Nc2ccccc2)C1 [Example-13, N1-Phenyl-N3-((1S,3R)-3-{2-[(2S)-2-cyanopyrrolidin-1-yl]-2-oxoethylamino}-cyclopentylmethyl)urea]	31.9
N#C[C@@H]1C[C@H](F)CN1C(=O)CN[C@@H]1CC[C@H](Cc2ccccc2)C1 [Example-15, (2S,4S)-1-{2-[(1R,3R)-3-Benzylcyclopentylamino]acetyl}-4-fluoropyrrolidin-2-yl cyanide]	6.06
COc1ccccc1C[C@H]1CC[C@@H](NCC(=O)N2C[C@@H](F)C[C@H]2C#N)C1 [Example-16]	17.7
N#C[C@@H]1CCCN1C(=O)CN[C@@H]1CC[C@H](CN2CCOCC2)C1 [Example-19, (2S)-1-{2-[(3S,1R)-3-Morpholinomethylcyclopentylamino]acetyl}pyrrolidine-2-carbonitrile]	20.1
